Like-named read-outs stand apart in the source and are kept apart here. *1 amine or outer side, *2 acyl side, *3 side chain or, on linkers, in order; H or OH if unused. Where a SMILES comes first, the peptide text is derived from it. [ ]: non-standard residue; d: D form. X1 = O=C([C@@H](N[*:1])[C@@H]1CC(Cl)=NO1)[*:2]; DON = [N-]=[N+]=CC(=O)CC[C@H](N)C(=O)O Bounds are passed on as bounds.

Data set [1] deals with T1, recombinant human tissue transglutaminase (Homo sapiens, UniProt P21980).
T1 sequence (P21980 1-687): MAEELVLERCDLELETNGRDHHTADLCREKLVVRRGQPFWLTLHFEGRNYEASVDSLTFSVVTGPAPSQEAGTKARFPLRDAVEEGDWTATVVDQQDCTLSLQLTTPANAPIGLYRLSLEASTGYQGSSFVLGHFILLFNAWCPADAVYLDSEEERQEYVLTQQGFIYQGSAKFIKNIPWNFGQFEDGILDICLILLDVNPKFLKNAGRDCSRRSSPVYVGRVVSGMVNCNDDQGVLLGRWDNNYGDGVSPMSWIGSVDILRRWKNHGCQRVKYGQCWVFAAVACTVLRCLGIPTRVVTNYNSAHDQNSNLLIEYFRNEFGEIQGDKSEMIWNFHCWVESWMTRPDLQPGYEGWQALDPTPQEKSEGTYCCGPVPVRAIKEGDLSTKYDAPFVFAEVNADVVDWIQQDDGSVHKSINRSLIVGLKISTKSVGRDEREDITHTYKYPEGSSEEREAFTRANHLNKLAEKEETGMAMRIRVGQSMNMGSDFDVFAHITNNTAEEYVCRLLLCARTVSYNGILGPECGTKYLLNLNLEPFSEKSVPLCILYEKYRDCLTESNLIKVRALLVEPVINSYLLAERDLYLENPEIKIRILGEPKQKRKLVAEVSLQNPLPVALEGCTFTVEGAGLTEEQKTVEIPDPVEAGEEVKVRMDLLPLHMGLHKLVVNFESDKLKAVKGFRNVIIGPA
In words: Inhibition of tissue transglutaminase (residual tTG activity, glutamate dehydrogenase coupled assay). The format is biochemical. The arrangement: made in house.

For data set [2], the target named is T1, recombinant human tissue transglutaminase. Kind of data set: Catalysis of reactive glutamine substrates by tissue transglutaminase. Particulars: read-out: KM (reactive motif Gln); X = Gln, substrate.
Substrate in data set [3]: NCCc1c[nH]cn1
In words: purified protein, by the assay type. Particulars: other: nucleophilic amine co-substrate.

Substrate in data set [4]: CC(=O)N1CCC[C@H]1C(=O)N[C@@H](CCC(N)=O)C(=O)N1CCC[C@H]1C(=O)N[C@@H](CCC(N)=O)C(=O)N[C@@H](CC(C)C)C(=O)N1CCC[C@H]1C(=O)N[C@@H](Cc1ccccc1)C(N)=O
Kind of data set: purified protein, by the assay type. Particulars: other: X = Gln, substrate; pH 7.1; 30.0 °C.

Substrate in data set [5]: CC(C)C[C@H](NC(=O)[C@H](CCC(N)=O)NC(=O)[C@@H]1CCCN1C(=O)[C@H](CCC(N)=O)NC(=O)[C@@H]1CCCN1)C(=O)N1CCC[C@H]1C(=O)N[C@@H](Cc1ccc(O)cc1)C(=O)O
In words: purified protein, by the assay type. Particulars: other: X = Gln, substrate; pH 7.1; 30.0 °C.

Where [6] appears, read: Table 3, sulfonamides and sulfonyl hydrazides, competitive inhibition constant, read-out: inhibition constant.
[7] abbreviates: X = acivicin, 200 mM MOPS pH 7.1, 30° C.

On to `CCOC(=O)[C@H](CCS(=O)(=O)NN)NC(=O)OCc1ccccc1` [(S)-2-Benzyloxycarbonylamino-4-hydrazinosulfonyl-butyric acid ethyl ester], for which the Ki in data set [1] (setting [6]) is 2.2 mM.

Take `CCOC(=O)[C@H](CCS(=O)(=O)NNc1ccccc1)NC(=O)OCc1ccccc1` [(S)-2-Benzyloxycarbonylamino-4-phenylhydrazinosulfonyl-butyric acid ethyl ester]: the Ki in data set [1] (setting [6]) was found to be 0.13 mM.

Consider `CCOC(=O)[C@H](CCS(N)(=O)=O)NC(=O)OCc1ccccc1` [(S)-2-Benzyloxycarbonylamino-4-sulfamoyl-butyric acid ethyl ester], for which the Ki in data set [1] (setting [6]) is 4.4 mM.

With `CC(=O)N1CCC[C@H]1C(=O)N[C@@H](CCC(N)=O)C(=O)N1CCC[C@H]1C(=O)N[C@@H](CCC(=O)C=[N+]=[N-])C(=O)N[C@@H](CC(C)C)C(=O)N1CCC[C@H]1C(=O)N[C@@H](Cc1ccccc1)C(N)=O` [Ac—PQP—X—LPF—NH2, X=DON, Ac-Pr-Gl-Pr-DonLeu-Pr-PheNH2] (Ac-PQP[DON]LPF-NH2), in data set [1] (X = 6-diazo-5-oxo-norleucine), the “kinh (reactive motif DON)” value is 0.2 min⁻¹ and the “kinh/KI (reactive motif DON)” value was 2.9 × 10^6 min^−1M^−1.

Take `COC(=O)C(CCC(=O)C=[N+]=[N-])NC(=O)OCc1ccccc1` (centres unmarked) [Cbz-X—OMe, X=DON]: in data set [1] (X = 6-diazo-5-oxo-norleucine), the “kinh (reactive motif DON)” value was 0.12 min⁻¹ and the “kinh/KI (reactive motif DON)” value is recorded as 890 min^−1M^−1. Moreover, the Ki in data set [1] (X = 6-diazo-5-oxo-norleucine, read-out: KI (reactive motif DON)) was 0.135 mM.

One may read the Km as the concentration of substrate that gives half-maximal velocity. Consider `COC(=O)[C@H](CCC(N)=O)NC(=O)OCc1ccccc1` [Cbz-X—OMe, X=Gln], for which the Km in data set [2] is above 30000 µM.

Turning to `N[C@H](C(=O)O)[C@@H]1CC(Cl)=NO1` [H—X—OH, X=Aci, acivicin, reference compound], the “kinh/KI (reactive motif Aci)” value in data set [1] (X = acivicin) was 0.17 min^−1M^−1. Moreover, the “kinh (reactive motif Aci)” value in data set [1] (setting [7]) was found to be 0.015 min⁻¹. Further, the Ki in data set [1] (X = acivicin, 200 mM MOPS pH 7.1, 30° C., read-out: KI (reactive motif Aci)) stood at 87 mM.

Consider `[N-]=[N+]=CC(=O)CC[C@H](N)C(=O)O` [H—X—OH, X=DON, 6-diazo-5-oxo-norleucine, reference compound], for which, in data set [1] (X = 6-diazo-5-oxo-norleucine), the “kinh (reactive motif DON)” value is 0.025 min⁻¹ and the “kinh/KI (reactive motif DON)” value is 0.2 min^−1M^−1.

For the molecule `CC(C)C[C@H](NC(=O)[C@@H](NC(=O)[C@@H]1CCCN1C(=O)[C@H](CCC(N)=O)NC(=O)[C@@H]1CCCN1)[C@@H]1CC(Cl)=NO1)C(=O)N1CCC[C@H]1C(=O)N[C@@H](Cc1ccc(O)cc1)C(=O)O` [PQP—X—LPY, X=Aci, Pro-Gln-Pro-Aci-Leu-Pro-Tyr] (H-PQP[X1]LPY-OH; C-terminus assumed), the “kinh/KI (reactive motif Aci)” value in data set [1] (X = acivicin) came out at 18 min^−1M^−1. For the same molecule, in data set [1] (setting [7]), the “kinh (reactive motif Aci)” value was found to be 0.014 min⁻¹.

Turning to `NS(=O)(=O)CCC(NC(=O)OCc1ccccc1)C(=O)NCC(=O)O` (centres unmarked) [Z-Sab-Gly], in data set [1] (Table 2, Sab derivatives, reversible competitive inhibition, read-out: KI), the Ki is 8 mM.

B1: human tTGase (Homo sapiens) (protein)
chain: MAEELVLERCDLELETNGRDHHTADLCREKLVVRRGQPFWLTLHFEGRNYEASVDSLTFSVVTGPAPSQEAGTKARFPLRDAVEEGDWTATVVDQQDCTLSLQLTTPANAPIGLYRLSLEASTGYQGSSFVLGHFILLFNAWCPADAVYLDSEEERQEYVLTQQGFIYQGSAKFIKNIPWNFGQFEDGILDICLILLDVNPKFLKNAGRDCSRRSSPVYVGRVVSGMVNCNDDQGVLLGRWDNNYGDGVSPMSWIGSVDILRRWKNHGCQRVKYGQCWVFAAVACTVLRCLGIPTRVVTNYNSAHDQNSNLLIEYFRNEFGEIQGDKSEMIWNFHCWVESWMTRPDLQPGYEGWQALDPTPQEKSEGTYCCGPVPVRAIKEGDLSTKYDAPFVFAEVNADVVDWIQQDDGSVHKSINRSLIVGLKISTKSVGRDEREDITHTYKYPEGSSEEREAFTRANHLNKLAEKEETGMAMRIRVGQSMNMGSDFDVFAHITNNTAEEYVCRLLLCARTVSYNGILGPECGTKYLLNLNLEPFSEKSVPLCILYEKYRDCLTESNLIKVRALLVEPVINSYLLAERDLYLENPEIKIRILGEPKQKRKLVAEVSLQNPLPVALEGCTFTVEGAGLTEEQKTVEIPDPVEAGEEVKVRMDLLPLHMGLHKLVVNFESDKLKAVKGFRNVIIGPA
By kcat is commonly meant the number of substrate molecules converted per active site and unit of time at saturation. For B1, in data set [3], the Km is 40 µM and the kcat stood at 0.333 s⁻¹.

B2: recombinant human tissue transglutaminase (Homo sapiens) (protein)
chain: MAEELVLERCDLELETNGRDHHTADLCREKLVVRRGQPFWLTLHFEGRNYEASVDSLTFSVVTGPAPSQEAGTKARFPLRDAVEEGDWTATVVDQQDCTLSLQLTTPANAPIGLYRLSLEASTGYQGSSFVLGHFILLFNAWCPADAVYLDSEEERQEYVLTQQGFIYQGSAKFIKNIPWNFGQFEDGILDICLILLDVNPKFLKNAGRDCSRRSSPVYVGRVVSGMVNCNDDQGVLLGRWDNNYGDGVSPMSWIGSVDILRRWKNHGCQRVKYGQCWVFAAVACTVLRCLGIPTRVVTNYNSAHDQNSNLLIEYFRNEFGEIQGDKSEMIWNFHCWVESWMTRPDLQPGYEGWQALDPTPQEKSEGTYCCGPVPVRAIKEGDLSTKYDAPFVFAEVNADVVDWIQQDDGSVHKSINRSLIVGLKISTKSVGRDEREDITHTYKYPEGSSEEREAFTRANHLNKLAEKEETGMAMRIRVGQSMNMGSDFDVFAHITNNTAEEYVCRLLLCARTVSYNGILGPECGTKYLLNLNLEPFSEKSVPLCILYEKYRDCLTESNLIKVRALLVEPVINSYLLAERDLYLENPEIKIRILGEPKQKRKLVAEVSLQNPLPVALEGCTFTVEGAGLTEEQKTVEIPDPVEAGEEVKVRMDLLPLHMGLHKLVVNFESDKLKAVKGFRNVIIGPA
Usually kcat/Km stands for the turnover number divided by the Michaelis constant. In the case of B2, in data set [4], the Km was 400 µM, the catalytic constant (kcat) came out at 0.667 s⁻¹ and the specificity constant (kcat/Km) stood at 1620 M⁻¹ s⁻¹. Besides, in data set [5], the Km was 300 µM.

Values taken from US20060035838A1, “Drug therapy for celiac sprue” (The Board of Trustees of the Leland Stanford Junior …, priority 2002, published 2006).
